According to patent US20150030561A1, “Use of CXCR4 Antagonists” (GENZYME CORP., priority 2011, published 2015):
Like-named read-outs stand apart in the source and are kept apart here.

Legend:
[1] = system: patients with myelokathexis attributable to mutations of CXCR4
Description: […] intrapatient escalating dose levels, 20 mcg/kg, 40 mcg/kg, 80 mcg/kg, and 240 mcg/kg were exam in d. The subjects were patients at the University of Washington General Clinical Research Center for up to 10 days; the study requires the subject to be available for up to 14 days.
Complete blood counts were determined at 1, 3, 6, 9 and 24 hours with an automated counter and leukocyte differential counts confirmed manually. CD34^+ cells and lymphocyte subtypes were measured by FACS before and 6 hours after the 0.08 mg/kg dose.

[2] = literature (Liles 2003; DiPersio 2009); cited from earlier work

## c1cc(CN2CCCNCCNCCCNCC2)ccc1CN1CCCNCCNCCCNCC1 [plerixafor]
[1]; 10 day testing period, except one patient with severe iron deficiency anemia
  hematocrit, hemoglobin and platelet counts: stable
[1]; all 6 patients
  leukocyte response: prompt leukocytosis
[1]; another patient, 0.24 mg/kg dose
  blood neutrophils 24 hours after dose: 2e+09 L⁻¹
[1]; controls (normal subjects similarly treated)
  fold increase, peak neutrophil response: 4.4 fold
[1]; one patient, 0.16 mg/kg dose
  blood neutrophils 24 hours after dose: greater than 2.0 ×10^9/L
[1]; patient group, single s.c. doses 0.02 to 0.24 mg/kg, mean baseline 0.4±0.1×10^9/L
  peak blood neutrophils (group mean of highest observed values): 4.5±0.78 ×10^9/L
[1]; patients
  absolute lymphocyte count increase from baseline to peak levels: approximately 14 fold
  absolute lymphocyte counts versus normal levels: transiently reached normal levels
  fold increase, peak neutrophil response: 8.2 fold
[1]; patients, 0.08 mg/kg dose, FACS before and 6 hours after
  CD34+ cells increase: ~6 fold
[1]; patients, s.c. single doses
  effect on neutropenia and lymphocytopenia: transiently correct neutropenia and lymphocytopenia
[2]
  effect on circulating CD34+ cells: increases circulating CD34^+ cells
  leukocyte effect of subcutaneous administration: dose-dependent leukocytosis
